From patent US11542259B2, “Compounds for the treatment of kinase-dependent disorders” (Exelixis, Inc., priority 2018, dated 2023)

Assays:
Met = Met (Homo sapiens (Human), UniProt P08581); experiment: Met autophosphorylation ELISA in PC-3 cells; format: cell-based; settings: cellular, HGF stimulated, read-out: c-Met IC50
Outline: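 Phospho-Met (panTyr) sandwich ELISA on lysates of PC-3 cells given 100 ng/mL HGF for 10 min after 1 h compound exposure (8-point curve, 0.3% DMSO) following 3 h serum starvation. Normalised to HGF-stimulated DMSO and reference-inhibitor wells; 4-parameter logistic IC50.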

Mer = Mer (Homo sapiens (Human), UniProt Q12866); experiment: Mer autophosphorylation ELISA in transient transfected 293A cells; format: cell-based; settings: cellular, MERTK transfected 293A cells
Protocol: 293A cells (Thermo Fisher #R70507) were seeded at 1.5×10^6 cells/well onto 100 mm dish (Greiner #664169), in DMEM (Thermo Fisher #11995-040) containing 10% FBS (Thermo Fisher #26140-079), 1% MEM NEAA (Thermo Fisher #11140-050), 1% GlutaMax (Thermo Fisher #35050-061), and 1% Penicillin Streptomycin (Thermo Fisher #15140-122). 293A cells were incubated at 37° C., 5% CO2 for 24 h and then transfected with 6 μg MERTK DNA (Genecopoeia #EX-Z8208-M02) using TransIT LT1 transfection reagent (Mirus-Bio #MIR2305). After 24 h incubation, the transfected 293A cells were seeded at 1×10^5 cells/well onto 96-well plates (Corning #3904) in DMEM growth medium overnight. Test compounds were serially diluted to produce an 8-point dose curve in fresh serum-free medium to a final concentration of 0.3% DMSO (vehicle) and added to the cells and incubated for 1 h. Cells were then immediately lysed with 150 μL of cold 1× lysis buffer [20 mM Tris, 137 mM sodium chloride, 2 mM EDTA, 10% glycerol, 1% NP-40 alternative, 1 mM activated sodium orthovanadate, 1 mM PefaBloc SC (Sigma-Aldrich #11429868001), protease/phosphatase inhibitor tablet (Thermo Fisher #A32959)]. Lysates were clarified by centrifugation and 50 μL/well added into the human phospho-Mer DuoSet IC ELISA (R&D Systems #DYC2579-2). Assay was performed according to manufacturer's instructions and sample phospho-Mer concentrations were extrapolated using human phospho-Mer control (R&D Systems #841793) as a standard. Positive control wells (100% activity) contained DMSO-treated cell lysates. Negative control wells (0% activity) contained reference inhibitor-treated cell lysates. IC50 values were calculated by nonlinear regression analysis using a 4-parameter logistic curve fit in ActivityBase XE (IDBS).

AXL = AXL (Homo sapiens (Human), UniProt P30530); experiment: AXL autophosphorylation ELISA in A-172 cells; format: cell-based; settings: cellular, Gas6 stimulated
Outline: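 Serum-starved (24 h) A-172 glioblastoma cells pretreated 1 h with compounds (8-point curve, 0.3% DMSO), then stimulated 15 min with 1 μg/mL Gas6. Lysate phospho-AXL measured by sandwich ELISA against a phospho-AXL standard; IC50 from 4-parameter logistic fit between DMSO and reference-inhibitor controls.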

KDR = KDR (Homo sapiens (Human), UniProt P35968); experiment: KDR autophosphorylation ELISA in HUVEC cells; format: cell-based; settings: cellular, VEGF165 stimulated
Outline: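 Compound pretreatment (1 h, 0.3% DMSO) of serum-starved HUVEC preceded a 5 min pulse of 100 ng/mL VEGF165, after which cells were lysed. Phospho-KDR was quantified by ELISA relative to stimulated and unstimulated controls.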

[1] = biological target: Human Mer (residues R557-E882 with H628Q and R794A) (Homo sapiens (Human), UniProt Q12866); experiment: Human Mer kinase assay (33P radiometric, KinaseProfiler); format: biochemical; settings: 10 μM ATP
Protocol: (§1) Kinase activity and compound inhibition were investigated using the ^33P-Phosphoryl transfer radiometric kinase assay, performed using the KinaseProfiler™ service of Eurofins Pharma Discovery Services UK Limited. Dose-response experiments were performed using nine compound concentrations in a 96-well microtiter plate. For each assay, all compounds were prepared to a 50× final assay concentration (50 μM) in 100% DMSO, then diluted in a half-log series, with the final top concentration at 1 μM. This working stock of the compound was added to the assay well as the first component in the reaction, followed by the remaining components as detailed in the following assay protocols below. The positive control wells (100% kinase activity) contain all components of the reaction including 2% DMSO (control for solvent effects), except the compound of interest. Blank wells contain all components of the reaction, with the reference inhibitor, staurosporine. This reference compound was used to abolish kinase activity and generated the 0% kinase activity base-line. IC50 values were calculated by nonlinear regression analysis using the sigmoidal dose-response (variable slope) curve fit on XLFit version 5.3 (ID Business Solutions).
Human Mer (residues R557-E882 with H628Q and R794A, 0.7 nM) was incubated with 8 mM MOPS pH 7.0, 0.2 mM EDTA, 30 mM NaCl, 250 μM GGMEDIYFEFMGGKKK (SEO ID NO. 44). 10 mM magnesium acetate, and 10 μM [γ-^33P-ATP]. The reaction was initiated by the addition of the Mg/ATP mix. After incubation for 40 minutes at room temperature, the reaction was stopped by the addition of phosphoric acid to a concentration of 0.5%. A reaction aliquot of 10 μL was then spotted onto a P30 filtermat and washed four times for 4 minutes in 0.425% phosphoric acid and once in methanol prior to drying and scintillation counting. Incorporated ^33P was measured using the Wallac Microbeta scintillation counter (Perkin Elmer).

[2] = biological target: Human Axl (residues H473-A894 with Q764R) (Homo sapiens (Human), UniProt P30530, Q764R); experiment: Human AXL kinase assay (33P radiometric, KinaseProfiler); format: biochemical; settings: 10 μM ATP
Protocol: as §1
Human Axl (residues H473-A894 with Q764R, 161 nM) was incubated with 8 mM MOPS pH 7.0, 0.2 mM EDTA, 250 μM KKSRGDYMTMQIG (SEO ID NO. 43) 10 mM magnesium acetate and 10 μM [γ-33P-ATP]. The reaction was initiated by the addition of the Mg/ATP mix. After incubation for 40 minutes at room temperature, the reaction was stopped by the addition of phosphoric acid to a concentration of 0.5%. A reaction aliquot of 10 μL was then spotted onto a P30 filtermat and washed four times for 4 minutes in 0.425% phosphoric acid and once in methanol prior to drying and scintillation counting. Incorporated ^33P was measured using the Wallac Microbeta scintillation counter (Perkin Elmer).

[3] = biological target: Human Met (residues R974-S1390 with A1209G and V1290L) (Homo sapiens, UniProt P08581); experiment: Human Met kinase assay (33P radiometric, KinaseProfiler); format: biochemical; settings: 10 μM ATP, read-out: c-Met IC50
Protocol: as §1
Human Met (residues R974-S1390 with A1209G and V1290L, 3.4 nM) was incubated with 8 mM MOPS pH 7.0, 0.2 mM EDTA, 250 μM KKKGQEEEYVFIE (SEO ID NO. 45), 1 mM sodium orthovanadate, 5 mM […], 10 mM magnesium acetate, and 10 μM [γ-33P-ATP]. The reaction was initiated by the addition of the Mg/ATP mix. After incubation for 40 minutes at room temperature, the reaction was stopped by the addition of phosphoric acid to a concentration of 0.5%. A reaction aliquot of […] was then spotted onto a P30 filtermat and washed four times for 4 minutes in 0.425% phosphoric acid and once in methanol prior to drying and scintillation counting. Incorporated 33P was measured using the Wallac Microbeta scintillation counter (Perkin Elmer).

Chain of Met (P08581 25-1390): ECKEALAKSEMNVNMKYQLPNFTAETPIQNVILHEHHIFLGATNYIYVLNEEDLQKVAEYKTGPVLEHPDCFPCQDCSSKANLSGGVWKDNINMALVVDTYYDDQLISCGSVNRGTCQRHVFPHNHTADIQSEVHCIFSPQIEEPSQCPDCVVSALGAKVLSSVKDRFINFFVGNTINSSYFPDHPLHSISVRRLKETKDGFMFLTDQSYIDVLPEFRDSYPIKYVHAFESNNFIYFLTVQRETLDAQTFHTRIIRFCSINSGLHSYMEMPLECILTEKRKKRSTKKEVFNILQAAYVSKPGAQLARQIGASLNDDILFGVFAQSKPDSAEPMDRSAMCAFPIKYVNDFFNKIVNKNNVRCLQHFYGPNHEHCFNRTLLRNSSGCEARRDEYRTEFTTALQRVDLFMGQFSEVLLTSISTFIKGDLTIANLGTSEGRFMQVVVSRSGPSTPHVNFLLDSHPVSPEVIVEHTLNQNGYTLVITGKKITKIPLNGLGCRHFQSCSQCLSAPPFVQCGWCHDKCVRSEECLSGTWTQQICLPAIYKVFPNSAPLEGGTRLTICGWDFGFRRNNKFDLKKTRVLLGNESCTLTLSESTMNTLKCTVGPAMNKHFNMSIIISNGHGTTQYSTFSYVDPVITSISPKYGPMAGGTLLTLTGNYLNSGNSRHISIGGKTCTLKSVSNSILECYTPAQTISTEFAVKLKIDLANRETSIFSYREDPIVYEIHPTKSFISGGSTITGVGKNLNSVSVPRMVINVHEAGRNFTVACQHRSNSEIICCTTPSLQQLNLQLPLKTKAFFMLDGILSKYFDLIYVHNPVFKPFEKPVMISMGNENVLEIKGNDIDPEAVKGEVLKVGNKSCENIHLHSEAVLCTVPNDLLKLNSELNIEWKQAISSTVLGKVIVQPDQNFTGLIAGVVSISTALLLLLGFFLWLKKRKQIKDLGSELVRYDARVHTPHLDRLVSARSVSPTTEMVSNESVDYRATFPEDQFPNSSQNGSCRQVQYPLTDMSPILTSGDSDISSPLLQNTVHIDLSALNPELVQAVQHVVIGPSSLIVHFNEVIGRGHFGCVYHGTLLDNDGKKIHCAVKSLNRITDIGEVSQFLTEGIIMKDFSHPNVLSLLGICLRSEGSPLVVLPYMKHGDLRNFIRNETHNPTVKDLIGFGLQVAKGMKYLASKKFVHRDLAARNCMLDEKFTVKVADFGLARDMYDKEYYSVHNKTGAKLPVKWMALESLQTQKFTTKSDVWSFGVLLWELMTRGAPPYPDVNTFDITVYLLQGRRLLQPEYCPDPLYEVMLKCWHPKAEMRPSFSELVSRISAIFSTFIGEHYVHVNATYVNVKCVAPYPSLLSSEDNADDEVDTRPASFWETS
Chain of Human Mer (residues R557-E882 with H628Q and R794A) (Q12866 557-882, stated change not applied): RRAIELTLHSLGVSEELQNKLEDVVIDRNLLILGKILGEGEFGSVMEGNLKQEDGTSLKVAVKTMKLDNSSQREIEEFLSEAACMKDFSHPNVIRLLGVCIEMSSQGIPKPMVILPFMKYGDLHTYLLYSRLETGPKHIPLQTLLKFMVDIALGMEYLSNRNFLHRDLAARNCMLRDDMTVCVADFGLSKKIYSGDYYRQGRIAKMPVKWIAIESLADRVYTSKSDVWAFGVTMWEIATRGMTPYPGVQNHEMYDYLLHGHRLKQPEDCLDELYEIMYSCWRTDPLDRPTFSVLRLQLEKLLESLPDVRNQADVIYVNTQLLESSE
Chain of AXL (P30530 26-894): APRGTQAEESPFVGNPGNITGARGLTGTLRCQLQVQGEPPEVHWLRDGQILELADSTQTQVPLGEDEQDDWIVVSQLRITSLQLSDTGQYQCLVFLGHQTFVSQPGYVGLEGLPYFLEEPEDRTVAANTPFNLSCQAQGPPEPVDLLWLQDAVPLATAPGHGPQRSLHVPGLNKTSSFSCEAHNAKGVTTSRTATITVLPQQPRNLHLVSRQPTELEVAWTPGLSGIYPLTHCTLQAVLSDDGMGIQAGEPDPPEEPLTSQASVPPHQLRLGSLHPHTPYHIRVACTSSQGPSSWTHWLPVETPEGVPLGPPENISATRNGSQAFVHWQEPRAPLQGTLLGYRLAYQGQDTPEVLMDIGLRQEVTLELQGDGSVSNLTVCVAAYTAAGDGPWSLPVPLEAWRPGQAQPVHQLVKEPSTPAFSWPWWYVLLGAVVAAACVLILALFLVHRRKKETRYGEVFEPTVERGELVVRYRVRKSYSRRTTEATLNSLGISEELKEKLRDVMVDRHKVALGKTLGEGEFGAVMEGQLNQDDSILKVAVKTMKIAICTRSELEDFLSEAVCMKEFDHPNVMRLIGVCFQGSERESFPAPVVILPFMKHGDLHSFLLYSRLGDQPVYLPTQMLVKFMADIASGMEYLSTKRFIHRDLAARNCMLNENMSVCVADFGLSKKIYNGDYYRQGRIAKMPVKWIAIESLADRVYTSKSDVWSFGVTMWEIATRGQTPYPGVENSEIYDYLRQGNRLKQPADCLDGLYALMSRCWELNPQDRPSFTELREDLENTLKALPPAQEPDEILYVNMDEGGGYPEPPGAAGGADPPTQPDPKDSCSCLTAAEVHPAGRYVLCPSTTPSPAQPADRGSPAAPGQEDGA
Chain of Human Axl (residues H473-A894 with Q764R) (P30530 473-894 Q764R): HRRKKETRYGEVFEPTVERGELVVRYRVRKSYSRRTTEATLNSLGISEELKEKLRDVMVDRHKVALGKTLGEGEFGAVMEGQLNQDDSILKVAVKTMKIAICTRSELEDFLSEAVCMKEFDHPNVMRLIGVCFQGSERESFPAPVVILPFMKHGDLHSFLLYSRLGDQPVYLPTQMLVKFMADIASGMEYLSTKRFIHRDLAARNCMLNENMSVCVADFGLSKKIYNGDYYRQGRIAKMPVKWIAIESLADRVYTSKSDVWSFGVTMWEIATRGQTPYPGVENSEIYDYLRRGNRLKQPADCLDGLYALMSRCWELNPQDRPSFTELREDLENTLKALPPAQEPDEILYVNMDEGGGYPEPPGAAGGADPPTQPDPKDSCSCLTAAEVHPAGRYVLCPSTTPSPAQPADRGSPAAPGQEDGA
Chain of KDR (P35968 20-1356): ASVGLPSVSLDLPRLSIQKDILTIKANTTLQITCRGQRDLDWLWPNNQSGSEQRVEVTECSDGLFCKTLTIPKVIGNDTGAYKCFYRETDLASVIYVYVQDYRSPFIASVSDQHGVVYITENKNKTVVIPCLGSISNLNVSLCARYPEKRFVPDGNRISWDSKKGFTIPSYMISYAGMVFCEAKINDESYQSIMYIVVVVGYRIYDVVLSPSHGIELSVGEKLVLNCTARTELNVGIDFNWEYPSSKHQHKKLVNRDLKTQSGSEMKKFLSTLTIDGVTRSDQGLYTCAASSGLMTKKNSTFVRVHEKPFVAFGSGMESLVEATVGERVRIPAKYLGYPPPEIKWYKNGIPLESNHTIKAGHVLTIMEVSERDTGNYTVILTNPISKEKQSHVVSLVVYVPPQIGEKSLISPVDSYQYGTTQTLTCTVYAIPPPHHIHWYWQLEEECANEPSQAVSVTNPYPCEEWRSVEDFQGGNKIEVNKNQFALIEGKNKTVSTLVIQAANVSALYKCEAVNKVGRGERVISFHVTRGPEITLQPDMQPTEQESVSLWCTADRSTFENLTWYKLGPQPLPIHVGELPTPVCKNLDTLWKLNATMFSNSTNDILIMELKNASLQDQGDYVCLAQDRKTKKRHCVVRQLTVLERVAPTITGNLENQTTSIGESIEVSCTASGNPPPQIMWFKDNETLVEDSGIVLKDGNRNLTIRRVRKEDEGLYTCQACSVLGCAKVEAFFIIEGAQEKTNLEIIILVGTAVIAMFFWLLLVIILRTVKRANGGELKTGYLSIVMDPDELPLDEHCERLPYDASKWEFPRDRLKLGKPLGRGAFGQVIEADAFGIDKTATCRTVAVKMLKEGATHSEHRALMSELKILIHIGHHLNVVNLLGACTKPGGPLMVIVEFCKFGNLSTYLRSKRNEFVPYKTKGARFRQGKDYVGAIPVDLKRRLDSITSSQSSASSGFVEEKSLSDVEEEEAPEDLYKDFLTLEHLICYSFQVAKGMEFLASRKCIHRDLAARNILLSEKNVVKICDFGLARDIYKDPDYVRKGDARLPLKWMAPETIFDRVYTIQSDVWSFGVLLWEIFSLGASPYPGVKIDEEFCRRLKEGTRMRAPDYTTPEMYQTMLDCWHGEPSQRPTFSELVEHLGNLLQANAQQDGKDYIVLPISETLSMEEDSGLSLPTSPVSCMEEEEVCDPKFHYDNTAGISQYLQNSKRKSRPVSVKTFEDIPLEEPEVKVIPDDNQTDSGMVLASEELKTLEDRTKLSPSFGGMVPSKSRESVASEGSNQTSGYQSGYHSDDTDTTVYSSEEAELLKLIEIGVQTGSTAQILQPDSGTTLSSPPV

IC50 (Met) [nM] | IC50 (Mer) [nM] | IC50 (AXL) [nM] | IC50 (KDR) [nM] | IC50 [1] [nM] | IC50 [2] [nM] | IC50 [3] [nM] | SMILES
≤ 10 | ≤ 10 | ≤ 10 | 100 to 300 |  |  |  | CNC(=O)c1cc2nccc(Oc3cc(F)c(NC(=O)C4(C(=O)Nc5ccc(F)cc5)CC4)cc3F)c2cc1C [Compound 290, 1-N′-[2,5-Difluoro-4-[6-methyl-7-(methylcarbamoyl)quinolin-4-yl]oxyphenyl]-1-N-(4-fluorophenyl)cyclopropane-1,1-dicarboxamide]
10 to 100 | ≤ 10 | ≤ 10 | ≤ 10 |  |  |  | CNC(=O)Nc1cc2c(Oc3ccc(NC(=O)C4(C(=O)Nc5ccc(F)cc5)CC4)cc3)ccnc2cc1OC [Compound 279, 1-N′-(4-Fluorophenyl)-1-N-[4-[7-methoxy-6-(methylcarbamoylamino)-quinolin-4-yl]oxyphenyl]cyclopropane-1,1-dicarboxamide]
10 to 100 | 10 to 100 | ≤ 10 | ≤ 10 |  |  |  | CNC(=O)c1cc2c(Oc3ccc(NC(=O)C4(C(=O)Nc5ccc(F)cc5OC)CC4)cc3F)ccnc2cc1OC [Compound 268, 1-N-[3-Fluoro-4-[7-methoxy-6-(methylcarbamoyl)quinolin-4-yl]oxyphenyl]-1-N′-(4-fluoro-2-methoxyphenyl)cyclopropane-1,1-dicarboxamide]
 |  |  | > 300 | 10 to 100 | 100 to 1000 | 10 to 100 | COc1cc2c(Oc3ccc(NC(=O)C4(C(=O)Nc5ccc(F)cc5)CC4)cc3)ccnc2cc1C(=O)O [Compound 151, 4-[4-[[1-[(4-fluorophenyl)carbamoyl]cyclopropanecarbonyl]amino]phenoxy]-6-methoxyquinoline-7-carboxylic acid]
10 to 100 | 10 to 100 | ≤ 10 | ≤ 10 |  |  |  | CC(O)COc1cc2nccc(Oc3ccc(NC(=O)C4(C(=O)Nc5ccc(F)cc5)CC4)cc3)c2cc1C(N)=O (stereo not drawn) [Compound 115, 1-N-[4-[6-Carbamoyl-7-(2-hydroxypropoxy)quinolin-4-yl]oxyphenyl]-1-N′-(4-fluorophenyl)cyclopropane-1,1-dicarboxamide]
10 to 100 | ≤ 10 | 10 to 100 | ≤ 10 |  |  |  | CNC(=O)c1cc2c(Oc3ccc(NC(=O)C4(C(=O)Nc5ccc(Cl)cc5)CC4)cc3F)ccnc2cc1OC [Compound 274, 1-N-(4-Chlorophenyl)-1-N′-[3-fluoro-4-[7-methoxy-6-(methylcarbamoyl)quinolin-4-yl]oxyphenyl]cyclopropane-1,1-dicarboxamide]

Continued, compound first:

SMILES | IC50 (Met) [nM] | IC50 (Mer) [nM] | IC50 (AXL) [nM] | IC50 (KDR) [nM] | IC50 [1] [nM] | IC50 [2] [nM] | IC50 [3] [nM]
COc1cc2nccc(Oc3ccc(NC(=O)C4(C(=O)Nc5ccc(F)cc5)CC4)cc3)c2cc1C(=O)NN [Compound 32, 1-N′-(4-fluorophenyl)-1-N-[4-[6-(hydrazinecarbonyl)-7-methoxyquinolin-4-yl]oxyphenyl]cyclopropane-1,1-dicarboxamide] | 10 to 100 | ≤ 10 | ≤ 10 | ≤ 10 |  |  | 
COc1cc2nccc(Oc3ccc(NC(=O)C4(C(=O)Nc5ccc(F)cc5)CC4)cc3)c2cc1C(C)=O [Compound 34, 1-N-[4-(6-acetyl-7-methoxyquinolin-4-yl)oxyphenyl]-1-N′-(4-fluorophenyl)cyclopropane-1,1-dicarboxamide] | 10 to 100 | ≤ 10 | ≤ 10 | ≤ 10 |  |  | 
COc1cc2nccc(Oc3ccc(NC(=O)C4(C(=O)Nc5ccc(F)cc5)CC4)cc3)c2cc1C(=O)NOCC(O)CO (single isomer, unassigned) [Compound 31, 1-N-[4-[6-(2,3-dihydroxypropoxycarbamoyl)-7-methoxyquinolin-4-yl]oxyphenyl]-1-N′-(4-fluorophenyl)cyclopropane-1,1-dicarboxamide] | 100 to 300 | > 300 | 10 to 100 | 10 to 100 |  |  | 
COc1cc2nccc(Oc3ccc(NC(=O)C4(C(=O)Nc5ccc(F)cc5)CC4)cc3)c2cc1C(=O)NOCC(O)CO (single isomer, unassigned) [Compound 30, 1-N-[4-[6-(2,3-dihydroxypropoxycarbamoyl)-7-methoxyquinolin-4-yl]oxyphenyl]-1-N′-(4-fluorophenyl)cyclopropane-1,1-dicarboxamide] | 100 to 300 | > 300 | 100 to 300 | 10 to 100 |  |  | 
COc1cc2nccc(Oc3ccc(NC(=O)C4(C(=O)Nc5ccc(F)cc5)CC4)cc3)c2cc1C(=O)O [Compound 6, 4-[4-[[1-[(4-fluorophenyl)carbamoyl]-cyclopropanecarbonyl]amino]-phenoxy]-7-methoxyquinoline-6-carboxylic acid] | > 300 |  |  | > 300 | 10 to 100 | 100 to 1000 | ≤ 10
COc1cc2nccc(Oc3ccc(NC(=O)C4(C(=O)Nc5ccc(F)cc5)CC4)cc3)c2cc1C(=O)NCCN(C)C [Compound 10, 1-N-[4-[6-[2-(dimethylamino)ethylcarbamoyl]-7-methoxyquinolin-4-yl]oxyphenyl]-1-N′-(4-fluorophenyl)cyclopropane-1,1-dicarboxamide] |  |  |  |  | ≤ 10 | 10 to 100 | ≤ 10
